Results published in patent US6479435B1, “Diaryl ethers and processes for their preparation and herbicidal and desiccant compositions containing them” (ISK Americas Incorporated, priority 1997, dated 2002).

Key:
Type in all cases: in vivo
[1] = tested on: redroot pigweed (Amaranthus retroflexus, AMARE); test: Pre-emerge greenhouse herbicide test, phytotoxicity rating; settings: Amaranthus retroflexus, pre-emergence, 336 h, 14 days after application, rating scale 0-100; for pest or weed control at 125 g/ha: Rate 125 g al/ha; for pest or weed control at 500 g/ha: Rate 500 g al/ha
Method in brief: (§1)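 Seeds sown in sandy loam one day before track-sprayer application of acetone solutions at 125–1000 g ai/ha (187 l/ha), then surface-watered to incorporate and bottom-watered. Injury scored visually at 14 days on a 0–100 scale (0 no damage, 100 complete death).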

[2] = tested on: large crabgrass (Digitaria sanguinalis, DIGSA); test: as above; settings: Digitaria sanguinalis, pre-emergence, 336 h, 14 days after application, rating scale 0-100; for pest or weed control at 125 g/ha: Rate 125 g al/ha; for pest or weed control at 500 g/ha: Rate 500 g al/ha
Method in brief: as §1

[3] = tested on: ivyleaf morningglory (Ipomoea hederacea, IPOHE); test: as above; settings: Ipomoea, pre-emergence, 336 h, 14 days after application, rating scale 0-100; for pest or weed control at 125 g/ha: Rate 125 g al/ha; for pest or weed control at 500 g/ha: Rate 500 g al/ha
Method in brief: as §1

[4] = tested on: lambsquarters (Chenopodium album, CHEAL); test: as above; settings: Chenopodium album, pre-emergence, 336 h, 14 days after application, rating scale 0-100; for pest or weed control at 125 g/ha: Rate 125 g al/ha; for pest or weed control at 500 g/ha: Rate 500 g al/ha
Method in brief: as §1

[5] = tested on: green foxtail (Setaria viridis, SETVI); test: as above; settings: Setaria viridis, pre-emergence, 336 h, 14 days after application, rating scale 0-100; for pest or weed control at 125 g/ha: Rate 125 g al/ha; for pest or weed control at 500 g/ha: Rate 500 g al/ha
Method in brief: as §1

[6] = tested on: velvetleaf (Abutilon theophrasti, ABUTH); test: as above; settings: Abutilon theophrasti, pre-emergence, 336 h, 14 days after application, rating scale 0-100; for pest or weed control at 125 g/ha: Rate 125 g al/ha; for pest or weed control at 500 g/ha: Rate 500 g al/ha
Method in brief: as §1

[7] = tested on: redroot pigweed (Amaranthus retroflexus, AMARE); test: Post-emerge greenhouse herbicide test, phytotoxicity rating; settings: Amaranthus retroflexus, post-emergence, 336 h, 14 days after application, scale 0-100; for pest or weed control at 63 g/ha: rate 63 g ai/ha; for pest or weed control at 500 g/ha: rate 500 g ai/ha
Method in brief: (§2)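 Plants at the 2-3 leaf stage, sown 8-21 days earlier, were track-sprayed post-emergence with compound in acetone plus 0.25% v/v non-ionic surfactant at 63-1000 g ai/ha (187 l/ha). Damage was rated at 14 days on a 0-100 scale (0 none, 100 all plants dead), for both crop injury and weed control.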

[8] = tested on: large crabgrass (Digitaria sanguinalis, DIGSA); test: as above; settings: Digitaria sanguinalis, post-emergence, 336 h, 14 days after application, scale 0-100; for pest or weed control at 63 g/ha: rate 63 g ai/ha; for pest or weed control at 500 g/ha: rate 500 g ai/ha
Method in brief: as §2

[9] = tested on: ivyleaf morningglory (Ipomoea hederacea, IPOHE); test: as above; settings: Ipomoea, post-emergence, 336 h, 14 days after application, scale 0-100; for pest or weed control at 63 g/ha: rate 63 g ai/ha; for pest or weed control at 500 g/ha: rate 500 g ai/ha
Method in brief: as §2

[10] = tested on: lambsquarters (Chenopodium album, CHEAL); test: as above; settings: Chenopodium album, post-emergence, 336 h, 14 days after application, scale 0-100; for pest or weed control at 63 g/ha: rate 63 g ai/ha; for pest or weed control at 500 g/ha: rate 500 g ai/ha
Method in brief: as §2

[11] = tested on: Johnsongrass (Sorghum halepense, SORHA); test: as above; settings: Sorghum halepense, post-emergence, 336 h, 14 days after application, scale 0-100; for pest or weed control at 63 g/ha: rate 63 g ai/ha; for pest or weed control at 500 g/ha: rate 500 g ai/ha
Method in brief: as §2

[12] = tested on: sicklepod (Cassia obtusifolia, CASOB); test: as above; settings: Senna obtusifolia, post-emergence, 336 h, 14 days after application, scale 0-100; for pest or weed control at 63 g/ha: rate 63 g ai/ha; for pest or weed control at 500 g/ha: rate 500 g ai/ha
Method in brief: as §2

[13] = tested on: green foxtail (Setaria viridis, SETVI); test: as above; settings: Setaria viridis, post-emergence, 336 h, 14 days after application, scale 0-100; for pest or weed control at 63 g/ha: rate 63 g ai/ha; for pest or weed control at 500 g/ha: rate 500 g ai/ha
Method in brief: as §2

[14] = tested on: velvetleaf (Abutilon theophrasti, ABUTH); test: as above; settings: Abutilon theophrasti, post-emergence, 336 h, 14 days after application, scale 0-100; for pest or weed control at 63 g/ha: rate 63 g ai/ha; for pest or weed control at 500 g/ha: rate 500 g ai/ha
Method in brief: as §2

[15] = tested on: barnyardgrass (Echinochloa crusgalli, ECHCG); test: as above; settings: Echinochloa crus-galli, post-emergence, 336 h, 14 days after application, scale 0-100; for pest or weed control at 63 g/ha: rate 63 g ai/ha; for pest or weed control at 500 g/ha: rate 500 g ai/ha
Method in brief: as §2

Structure (SMILES)	pest or weed control at 125 g/ha [1] [%]	pest or weed control at 500 g/ha [1] [%]	pest or weed control at 125 g/ha [2] [%]	pest or weed control at 500 g/ha [2] [%]	pest or weed control at 125 g/ha [3] [%]	pest or weed control at 500 g/ha [3] [%]	pest or weed control at 125 g/ha [4] [%]	pest or weed control at 500 g/ha [4] [%]	pest or weed control at 125 g/ha [5] [%]	pest or weed control at 500 g/ha [5] [%]	pest or weed control at 125 g/ha [6] [%]	pest or weed control at 500 g/ha [6] [%]	pest or weed control at 63 g/ha [7] [%]	pest or weed control at 500 g/ha [7] [%]	pest or weed control at 63 g/ha [8] [%]	pest or weed control at 500 g/ha [8] [%]	pest or weed control at 63 g/ha [9] [%]	pest or weed control at 500 g/ha [9] [%]	pest or weed control at 63 g/ha [10] [%]	pest or weed control at 500 g/ha [10] [%]	further results
Nn1c(C(F)(F)F)cc(=O)n(-c2cc(Oc3ccc([N+](=O)[O-])cn3)c(Cl)cc2F)c1=O [Compound 9-11, 1-Amino-3-[4-chloro-2-fluoro-5-(5-nitro-2-pyridyloxy)phenyl]-6-trifluoromethyl-1,2,3,4-tetrahydropyrimidine-2,4-dione]	100	100	30	95	10	100	100	100	70	100	100	100	100	100	40	80	100	100	80	100	pest or weed control at 63 g/ha [11]: 20%; pest or weed control at 500 g/ha [11]: 80%; pest or weed control at 63 g/ha [12]: 30%; pest or weed control at 500 g/ha [12]: 80%; pest or weed control at 63 g/ha [13]: 20%; pest or weed control at 500 g/ha [13]: 40%; pest or weed control at 63 g/ha [14]: 100%; pest or weed control at 500 g/ha [14]: 100%; pest or weed control at 63 g/ha [15]: 0%; pest or weed control at 500 g/ha [15]: 50%
Nn1c(C(F)(F)F)cc(=O)n(-c2cc(Oc3ccccc3)c(Cl)cc2F)c1=O [Compound 9-26, 1-Amino-3-[4-chloro-2-fluoro-5-phenoxyphenyl]-6-trifluoromethyl-1,2,3,4-tetrahydropyrimidine-2,4-dione]	100	100	100	100	100	60	100	100	100	100	100	100	100	100	80	50	100	100	100	100	pest or weed control at 63 g/ha [11]: 90%; pest or weed control at 500 g/ha [11]: 100%; pest or weed control at 63 g/ha [12]: 100%; pest or weed control at 500 g/ha [12]: 100%; pest or weed control at 63 g/ha [13]: 100%; pest or weed control at 500 g/ha [13]: 100%; pest or weed control at 63 g/ha [14]: 100%; pest or weed control at 500 g/ha [14]: 100%; pest or weed control at 63 g/ha [15]: 80%; pest or weed control at 500 g/ha [15]: 100%
Nn1c(C(F)(F)F)cc(=O)n(-c2cc(Oc3ccc(Br)cn3)c(Cl)cc2F)c1=O [Compound 9-2, 1-Amino-3-[4-chloro-2-fluoro-5-(5-bromo-2-pyridyloxy)phenyl]-6-trifluoromethyl-1,2,3,4-tetrahydropyrimidine-2,4-dione]	80	100	95	100	0	100	100	100	80	100	30	100	100	100	0	30	100	80	100	95	pest or weed control at 63 g/ha [11]: 10%; pest or weed control at 500 g/ha [11]: 70%; pest or weed control at 63 g/ha [12]: 30%; pest or weed control at 500 g/ha [12]: 95%; pest or weed control at 63 g/ha [13]: 10%; pest or weed control at 500 g/ha [13]: 60%; pest or weed control at 63 g/ha [14]: 100%; pest or weed control at 500 g/ha [14]: 100%; pest or weed control at 63 g/ha [15]: 10%; pest or weed control at 500 g/ha [15]: 80%
